Test results published in ChEMBL document CHEMBL1649565, “Besifloxacin, a novel fluoroquinolone, has broad-spectrum in vitro activity against aerobic and anaerobic bacteria” (Antimicrob Agents Chemother, 2009).
Converted amounts (≈) assume the structure as drawn. The source made the active and inactive calls. The calls are words filed in the database; no cut-off is given here.

Experiments:
[1] = system: Staphylococcus epidermidis
[2] = system: Staphylococcus epidermidis; remark: listed apart in the source
[3] = system: Morganella morganii; assay: Antibacterial activity against Morganella morganii by CLSI M7-A7 method; format: functional
[4] = system: Proteus vulgaris; assay: Antibacterial activity against Proteus vulgaris by CLSI M7-A7 method; format: functional
[5] = system: Serratia marcescens; assay: Antibacterial activity against levofloxacin susceptible Serratia marcescens assessed as percent susceptible isolates by CLSI M7-A7 method; format: functional
[6] = system: Pseudomonas aeruginosa; assay: Antibacterial activity against non-ciprofloxacin-susceptible Pseudomonas aeruginosa assessed as percent susceptible isolates by CLSI M7-A7 method; format: functional
[7] = system: Serratia marcescens; assay: Antibacterial activity against Serratia marcescens by CLSI M7-A7 method; format: functional
[8] = system: Klebsiella oxytoca; assay: Antibacterial activity against Klebsiella oxytoca by CLSI M7-A7 method; format: functional
[9] = system: Stenotrophomonas maltophilia; assay: Antibacterial activity against levofloxacin-susceptible Stenotrophomonas maltophilia by CLSI M7-A7 method; format: functional
[10] = system: Citrobacter freundii; assay: Antibacterial activity against Citrobacter freundii assessed as percent susceptible isolates by CLSI M7-A7 method; format: functional
[11] = system: Stenotrophomonas maltophilia; assay: Antibacterial activity against non-levofloxacin susceptible Stenotrophomonas maltophilia by CLSI M7-A7 method; format: functional
[12] = system: Proteus vulgaris; assay: Antibacterial activity against Proteus vulgaris assessed as percent susceptible isolates by CLSI M7-A7 method; format: functional
[13] = system: Proteus mirabilis; assay: Antibacterial activity against Proteus mirabilis assessed as percent susceptible isolates by CLSI M7-A7 method; format: functional
[14] = system: Stenotrophomonas maltophilia; assay: Antibacterial activity against non-levofloxacin susceptible Stenotrophomonas maltophilia assessed as percent susceptible isolates by CLSI M7-A7 method; format: functional
[15] = system: Morganella morganii; assay: Antibacterial activity against Morganella morganii assessed as percent susceptible isolates by CLSI M7-A7 method; format: functional
[16] = system: Acinetobacter lwoffii; assay: Antibacterial activity against Acinetobacter lwoffii assessed as percent susceptible isolates by CLSI M7-A7 method; format: functional
[17] = system: Acinetobacter baumannii; assay: Antibacterial activity against Acinetobacter baumannii by CLSI M7-A7 method; format: functional
[18] = system: Citrobacter koseri; assay: Antibacterial activity against Citrobacter koseri by CLSI M7-A7 method; format: functional
[19] = system: Klebsiella pneumoniae; assay: Antibacterial activity against Klebsiella pneumoniae assessed as percent susceptible isolates by CLSI M7-A7 method; format: functional
[20] = system: Enterobacter cloacae; assay: Antibacterial activity against Enterobacter cloacae assessed as percent susceptible isolates by CLSI M7-A7 method; format: functional
[21] = system: Acinetobacter calcoaceticus; assay: Antibacterial activity against Acinetobacter calcoaceticus by CLSI M7-A7 method; format: functional
[22] = system: Enterobacter cloacae; assay: Antibacterial activity against Enterobacter cloacae by CLSI M7-A7 method; format: functional
[23] = system: Acinetobacter calcoaceticus; assay: Antibacterial activity against Acinetobacter calcoaceticus assessed as percent susceptible isolates by CLSI M7-A7 method; format: functional
[24] = system: Acinetobacter lwoffii; assay: Antibacterial activity against Acinetobacter lwoffii by CLSI M7-A7 method; format: functional
[25] = system: Pseudomonas aeruginosa; assay: Antibacterial activity against non-ciprofloxacin-susceptible Pseudomonas aeruginosa by CLSI M7-A7 method; format: functional
[26] = system: Acinetobacter baumannii; assay: Antibacterial activity against Acinetobacter baumannii assessed as percent susceptible isolates by CLSI M7-A7 method; format: functional
[27] = system: Stenotrophomonas maltophilia; assay: Antibacterial activity against levofloxacin-susceptible Stenotrophomonas maltophilia assessed as assessed as percent susceptible isolates by CLSI M7-A7 method; format: functional
[28] = system: Citrobacter freundii; assay: Antibacterial activity against Citrobacter freundii by CLSI M7-A7 method; format: functional
[29] = system: Klebsiella oxytoca; assay: Antibacterial activity against Klebsiella oxytoca assessed as percent susceptible isolates by CLSI M7-A7 method; format: functional
[30] = system: Pseudomonas aeruginosa; assay: Antibacterial activity against ciprofloxacin-susceptible Pseudomonas aeruginosa by CLSI M7-A7 method; format: functional
[31] = system: Pseudomonas aeruginosa; assay: Antibacterial activity against ciprofloxacin-susceptible Pseudomonas aeruginosa assessed as percent susceptible isolates by CLSI M7-A7 method; format: functional
[32] = system: Klebsiella aerogenes; assay: Antibacterial activity against Enterobacter aerogenes by CLSI M7-A7 method; format: functional
[33] = system: Citrobacter koseri; assay: Antibacterial activity against Citrobacter koseri assessed as percent susceptible isolates by CLSI M7-A7 method; format: functional
[34] = system: Proteus mirabilis; assay: Antibacterial activity against Proteus mirabilis by CLSI M7-A7 method; format: functional
[35] = system: Klebsiella aerogenes; assay: Antibacterial activity against Enterobacter aerogenes assessed as percent susceptible isolates by CLSI M7-A7 method; format: functional
[36] = system: Klebsiella pneumoniae; assay: Antibacterial activity against Klebsiella pneumoniae by CLSI M7-A7 method; format: functional

**Q.** With `O=C(O)c1cn(C2CC2)c2cc(N3CCNCC3)c(F)cc2c1=O` as the compound, how does the MIC90 [1] read?
**A.** Its MIC90 is “inactive”.

**Q.** And the MIC90 [2]?
**A.** The MIC90 was “inactive”.

**Q.** With `CC(C)(O/N=C(\C(=O)N[C@@H]1C(=O)N2C(C(=O)[O-])=C(C[n+]3ccccc3)CS[C@H]12)c1csc(N)n1)C(=O)O` [CEFTAZIDIME] as the compound, how does the MIC50 [3] read?
**A.** The MIC50 was 0.12 µg/mL (≈ 0.22 µM).

**Q.** And the MIC90 [3]?
**A.** Its MIC90 is 16 µg/mL (≈ 29.3 µM).

**Q.** What about the MIC50 [4] of the same compound?
**A.** The MIC50 was 0.06 µg/mL (≈ 0.11 µM).

**Q.** And the MIC90 [4]?
**A.** The MIC90 was 0.12 µg/mL (≈ 0.22 µM).

**Q.** And the Activity [5]?
**A.** Its Activity is 93%.

**Q.** What about the Activity [6] of the same compound?
**A.** The Activity was 57.3%.

**Q.** And the MIC50 [7]?
**A.** Its MIC50 is 0.06 µg/mL (≈ 0.11 µM).

**Q.** What about the MIC90 [7] of the same compound?
**A.** The MIC90 was 0.5 µg/mL (≈ 0.915 µM).

**Q.** And the MIC50 [8]?
**A.** The MIC50 was 0.12 µg/mL (≈ 0.22 µM).

**Q.** And the MIC90 [8]?
**A.** The MIC90 was 0.5 µg/mL (≈ 0.915 µM).

**Q.** What about the MIC [9] of the same compound?
**A.** Its MIC is 0.5 µg/mL (≈ 0.915 µM).

**Q.** What about the Activity [10] of the same compound?
**A.** The Activity was 78%.

**Q.** What about the MIC [11] of the same compound?
**A.** Its MIC is 0.5 µg/mL (≈ 0.915 µM).

**Q.** And the Activity [12]?
**A.** Its Activity is 100%.

**Q.** What about the Activity [13] of the same compound?
**A.** The Activity was 98%.

**Q.** What about the Activity [14] of the same compound?
**A.** Its Activity is 43.8%.

**Q.** What about the Activity [15] of the same compound?
**A.** The Activity was 82.4%.

**Q.** And the Activity [16]?
**A.** Its Activity is 76%.

**Q.** And the MIC50 [17]?
**A.** Its MIC50 is over 16 µg/mL.

**Q.** What about the MIC90 [17] of the same compound?
**A.** Its MIC90 is over 16 µg/mL.

**Q.** What about the MIC50 [18] of the same compound?
**A.** Its MIC50 is 0.12 µg/mL (≈ 0.22 µM).

**Q.** And the MIC90 [18]?
**A.** Its MIC90 is 0.5 µg/mL (≈ 0.915 µM).

**Q.** And the Activity [19]?
**A.** Its Activity is 92%.

**Q.** And the Activity [20]?
**A.** Its Activity is 70%.

**Q.** What about the MIC50 [21] of the same compound?
**A.** The MIC50 was 4 µg/mL (≈ 7.32 µM).

**Q.** What about the MIC90 [21] of the same compound?
**A.** Its MIC90 is over 16 µg/mL.

**Q.** And the MIC50 [22]?
**A.** The MIC50 was 0.5 µg/mL (≈ 0.915 µM).

**Q.** And the MIC90 [22]?
**A.** The MIC90 was over 16 µg/mL.

**Q.** And the Activity [23]?
**A.** Its Activity is 63%.

**Q.** What about the MIC50 [24] of the same compound?
**A.** The MIC50 was 2 µg/mL (≈ 3.66 µM).

**Q.** What about the MIC90 [24] of the same compound?
**A.** The MIC90 was over 16 µg/mL.

**Q.** And the MIC50 [25]?
**A.** Its MIC50 is 4 µg/mL (≈ 7.32 µM).

**Q.** And the MIC90 [25]?
**A.** Its MIC90 is over 16 µg/mL.

**Q.** What about the Activity [26] of the same compound?
**A.** Its Activity is 39.6%.

**Q.** And the Activity [27]?
**A.** Its Activity is 32.7%.

**Q.** What about the MIC50 [28] of the same compound?
**A.** The MIC50 was 0.25 µg/mL (≈ 0.457 µM).

**Q.** What about the MIC90 [28] of the same compound?
**A.** Its MIC90 is over 16 µg/mL.

**Q.** And the Activity [29]?
**A.** The Activity was 100%.

**Q.** And the MIC50 [30]?
**A.** Its MIC50 is 2 µg/mL (≈ 3.66 µM).

**Q.** And the MIC90 [30]?
**A.** Its MIC90 is 8 µg/mL (≈ 14.6 µM).

**Q.** And the Activity [31]?
**A.** Its Activity is 93.3%.

**Q.** And the MIC50 [32]?
**A.** Its MIC50 is 2 µg/mL (≈ 3.66 µM).

**Q.** What about the MIC90 [32] of the same compound?
**A.** Its MIC90 is over 16 µg/mL.

**Q.** And the Activity [33]?
**A.** The Activity was 100%.

**Q.** What about the MIC [34] of the same compound?
**A.** The MIC was at most 0.03 µg/mL.

**Q.** What about the MIC50 [34] of the same compound?
**A.** The MIC50 was at most 0.03 µg/mL.

**Q.** And the MIC90 [34]?
**A.** Its MIC90 is 0.06 µg/mL (≈ 0.11 µM).

**Q.** What about the Activity [35] of the same compound?
**A.** Its Activity is 62%.

**Q.** And the MIC50 [36]?
**A.** The MIC50 was 0.12 µg/mL (≈ 0.22 µM).

**Q.** And the MIC90 [36]?
**A.** Its MIC90 is 1 µg/mL (≈ 1.83 µM).
